Data: patent US20250352541A1, “THERAPEUTIC FOR CANCER REFRACTORY TO IMMUNE CHECKPOINT INHIBITOR” (Sumitomo Pharma Co., Ltd., priority 2022, published 2025)

Legend:
CHK1 = CHK1 (Homo sapiens (Human), UniProt O14757); assay: CHK1 inhibitory activity test (IMAP TR-FRET)
ES-2 cells = assay: Cell growth suppression experiment; type: cell-based
Protocol: ES-2 cells were obtained from the American Type Culture Collection (ATCC). These cells were cultured at 37° C. in the presence of 5% CO2 in a 10% fetal bovine serum, 1% penicillin/streptomycin containing McCoy's 5a medium.
500 cells were seeded for each well in a 384-well plate, and the evaluated compound was added so that the final concentration of DMSO would be 0.1% to culture the cells for 2 days. After completion of the culture, the cell viability rate was calculated using CellTiter-Glo® 3D Reagent (Promega, G968B).
The results of cell growth suppression test on representative compounds of the present disclosure are listed in the following table based on the ranking of I, IT, III, IV, and V (1000 nM<I, 1000 nM>TI>300 nM, 300 nM>III>100 nM, 100 nMV>IV>30 nM, 30 nM>V).

CHK1, sequence (O14757 whole entry): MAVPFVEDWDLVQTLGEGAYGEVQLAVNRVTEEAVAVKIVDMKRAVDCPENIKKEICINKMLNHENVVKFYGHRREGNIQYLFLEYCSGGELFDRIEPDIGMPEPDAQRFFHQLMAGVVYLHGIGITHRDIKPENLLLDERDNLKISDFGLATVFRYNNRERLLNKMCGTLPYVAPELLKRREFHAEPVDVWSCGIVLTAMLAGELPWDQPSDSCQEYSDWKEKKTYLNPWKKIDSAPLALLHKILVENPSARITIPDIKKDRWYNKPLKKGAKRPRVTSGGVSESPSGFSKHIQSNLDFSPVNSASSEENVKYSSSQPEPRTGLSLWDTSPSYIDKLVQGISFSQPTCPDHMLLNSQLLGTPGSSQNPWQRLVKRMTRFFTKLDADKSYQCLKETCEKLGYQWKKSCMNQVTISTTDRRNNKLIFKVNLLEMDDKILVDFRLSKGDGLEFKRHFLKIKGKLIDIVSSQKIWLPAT

`COc1cncc(O[C@H](C)C2(O)CNC2)c1-c1cc(Nc2cnc(C#N)cn2)n[nH]1` [Example 34, 5-[(5-{3-[(1R)-1-(3-hydroxyazetidin-3-yl)ethoxy]-5-methoxypyridin-4-yl}-1H-pyrazol-3-yl)amino]pyrazine-2-carbonitrile] was tested, and the IC50 (CHK1) was 1.82 nM.
With `COc1cncc(OC[C@H]2CCNC2)c1-c1cc(Nc2cnc(C#N)cn2)n[nH]1` [Example 21, (S)-5-[(5-{3-methoxy-[5-(pyrrolidin-3-yl)methoxy]pyridin-4-yl}-1H-pyrazol-3-yl)amino]pyrazine-2-carbonitrile] the IC50 (CHK1) was 0.29 nM, the “effect of suppressing CHK1 activity compared with prexasertib” value (CHK1) was “more potent effect of suppressing CHK1 activity than prexasertib” and the “cell growth suppression effect compared with prexasertib” value (ES-2 cells) was “excellent cell growth suppression effect that is equivalent to that of prexasertib”.
With `COc1cc(Cl)nc(OCCCN)c1-c1cc(Nc2cnc(C#N)cn2)n[nH]1` [Example 2, 5-({5-[2-(3-aminopropoxy)-6-chloro-4-methoxypyridin-3-yl]-1H-pyrazol-3-yl}amino)pyrazine-2-carbonitrile] the IC50 (CHK1) was 0.22 nM and the “effect of suppressing CHK1 activity compared with prexasertib” value (CHK1) was “more potent effect of suppressing CHK1 activity than prexasertib”.
For `COc1cncc(O[C@H]2C[C@H](N)[C@H]3C[C@H]32)c1-c1cc(Nc2cnc(C#N)cn2)n[nH]1` [Example 36, 5-{[5-(3-{[(1R,2S,4S,5S)-4-aminobicyclo[3.1.0]hexan-2-yl]oxy}-5-methoxypyridin-4-yl)-1H-pyrazol-3-yl]amino}pyrazine-2-carbonitrile], the IC50 (CHK1) was 0.73 nM and the “cell growth suppression effect compared with prexasertib” value (ES-2 cells) was “excellent cell growth suppression effect that is equivalent to that of prexasertib”.
For `COc1nccc(OCC2(C)CNC2)c1-c1cc(Nc2cnc(C#N)cn2)n[nH]1` [Example 6, 5-[(5-{2-methoxy-4-[(3-methylazetidin-3-yl)methoxy]pyridin-3-yl}-1H-pyrazol-3-yl)amino]pyrazine-2-carbonitrile], the IC50 (CHK1) was 0.27 nM, the “effect of suppressing CHK1 activity compared with prexasertib” value (CHK1) was “more potent effect of suppressing CHK1 activity than prexasertib” and the “cell growth suppression effect compared with prexasertib” value (ES-2 cells) was “excellent cell growth suppression effect that is equivalent to that of prexasertib”.
With `COc1cncc(OCC[C@@H](C)N)c1-c1cc(Nc2cnc(C#N)cn2)n[nH]1` [Example 9, 5-[(5-{3-[(3R)-3-aminobutoxy]-5-methoxypyridin-4-yl}-1H-pyrazol-3-yl)amino]pyrazine-2-carbonitrile] the IC50 (CHK1) was 0.24 nM and the “effect of suppressing CHK1 activity compared with prexasertib” value (CHK1) was “more potent effect of suppressing CHK1 activity than prexasertib”.
For `COc1cncc(O[C@H](C)C2CNC2)c1-c1cc(Nc2cnc(C#N)cn2)n[nH]1` [Example 33, 5-[(5-{3-[(1R)-1-(azetidin-3-yl)ethoxy]-5-methoxypyridin-4-yl}-1H-pyrazol-3-yl)amino]pyrazine-2-carbonitrile], the IC50 (CHK1) was 0.69 nM and the “cell growth suppression effect compared with prexasertib” value (ES-2 cells) was “excellent cell growth suppression effect that is equivalent to that of prexasertib”.
`COc1cncc(OC[C@@H](O)CN)c1-c1cc(Nc2cnc(C#N)cn2)n[nH]1` [Example 14, 5-[(5-{3-[(2S)-3-amino-2-hydroxypropoxy]-5-methoxypyridin-4-yl}-1H-pyrazol-3-yl)amino]pyrazine-2-carbonitrile] was tested, and the IC50 (CHK1) was 0.22 nM and the “effect of suppressing CHK1 activity compared with prexasertib” value (CHK1) was “more potent effect of suppressing CHK1 activity than prexasertib”.
With `N#Cc1cnc(Nc2cc(-c3c(OCF)cncc3OCCCN)[nH]n2)cn1` [Example 24, 5-({5-[3-(3-aminopropoxy)-5-(fluoromethoxy)pyridin-4-yl]-1H-pyrazol-3-yl}amino)pyrazine-2-carbonitrile] the IC50 (CHK1) was 0.3 nM and the “effect of suppressing CHK1 activity compared with prexasertib” value (CHK1) was “more potent effect of suppressing CHK1 activity than prexasertib”.
With `COc1cncc(OCC2(C(F)F)CNC2)c1-c1cc(Nc2cnc(C#N)cn2)n[nH]1` [Example 26, 5-{[5-(3-{[3-(difluoromethyl)azetidin-3-yl]methoxy}-5-methoxypyridin-4-yl)-1H-pyrazol-3-yl]amino}pyrazine-2-carbonitrile] the IC50 (CHK1) was 0.14 nM, the “effect of suppressing CHK1 activity compared with prexasertib” value (CHK1) was “more potent effect of suppressing CHK1 activity than prexasertib” and the “cell growth suppression effect compared with prexasertib” value (ES-2 cells) was “excellent cell growth suppression effect that is equivalent to that of prexasertib”.
In the case of `COc1nccc(OCCCN)c1-c1cc(Nc2cnc(C#N)cn2)n[nH]1` [Example 4, 5-({5-[4-(3-aminopropoxy)-2-methoxypyridin-3-yl]-1H-pyrazol-3-yl}amino)pyrazine-2-carbonitrile], the IC50 (CHK1) is reported as 0.23 nM, the “effect of suppressing CHK1 activity compared with prexasertib” value (CHK1) is reported as “more potent effect of suppressing CHK1 activity than prexasertib” and the “cell growth suppression effect compared with prexasertib” value (ES-2 cells) is reported as “excellent cell growth suppression effect that is equivalent to that of prexasertib”.
For `COc1cncc(OC[C@@H](C)CN)c1-c1cc(Nc2cnc(C#N)cn2)n[nH]1` [Example 27], the IC50 (CHK1) was 3.46 nM and the “cell growth suppression effect compared with prexasertib” value (ES-2 cells) was “excellent cell growth suppression effect that is equivalent to that of prexasertib”.
For `COc1cncc(OCC2CNC2)c1-c1cc(Nc2cnc(C#N)cn2)n[nH]1` [Example 18, 5-({5-[3-(azetidin-3-yl)methoxy-5-methoxypyridin-4-yl]-1H-pyrazol-3-yl}amino)pyrazine-2-carbonitrile], the IC50 (CHK1) was 0.51 nM and the “effect of suppressing CHK1 activity compared with prexasertib” value (CHK1) was “more potent effect of suppressing CHK1 activity than prexasertib”.
For `CNCCCOc1cncc(OC)c1-c1cc(Nc2cnc(C#N)cn2)n[nH]1` [Example 31, 5-[(5-{3-methoxy-5-[3-(methylamino)propoxy]pyridin-4-yl}-1H-pyrazol-3-yl)amino]pyrazine-2-carbonitrile], the IC50 (CHK1) was 0.75 nM and the “cell growth suppression effect compared with prexasertib” value (ES-2 cells) was “excellent cell growth suppression effect that is equivalent to that of prexasertib”.
`COc1ncnc(OCC2(CN)CC2)c1-c1cc(Nc2cnc(C#N)cn2)n[nH]1` [Example 23, 5-{[5-(4-{[1-(aminomethyl)cyclopropyl]methoxy}-6-methoxypyrimidin-5-yl)-1H-pyrazol-3-yl]amino}pyrazine-2-carbonitrile] was tested, and the IC50 (CHK1) was 0.79 nM and the “cell growth suppression effect compared with prexasertib” value (ES-2 cells) was “excellent cell growth suppression effect that is equivalent to that of prexasertib”.
In the case of `COc1cncc(OCCCN)c1-c1cc(Nc2cnc(C#N)cn2)n[nH]1` [Example 3, 5-({5-[3-(3-aminopropoxy)-5-methoxypyridin-4-yl]-1H-pyrazol-3-yl}amino)pyrazine-2-carbonitrile], the IC50 (CHK1) is reported as 0.22 nM, the “effect of suppressing CHK1 activity compared with prexasertib” value (CHK1) is reported as “more potent effect of suppressing CHK1 activity than prexasertib” and the “cell growth suppression effect compared with prexasertib” value (ES-2 cells) is reported as “excellent cell growth suppression effect that is equivalent to that of prexasertib”.
`COc1cncc(O[C@@H]2CCC[C@H](N)C2)c1-c1cc(Nc2cnc(C#N)cn2)n[nH]1` [Example 19, 5-{[5-(3-{[(1R,3S)-3-aminocyclohexyl]oxy}-5-methoxypyridin-4-yl)-1H-pyrazol-3-yl]amino}pyrazine-2-carbonitrile] was tested, and the IC50 (CHK1) was 0.26 nM, the “effect of suppressing CHK1 activity compared with prexasertib” value (CHK1) was “more potent effect of suppressing CHK1 activity than prexasertib” and the “cell growth suppression effect compared with prexasertib” value (ES-2 cells) was “excellent cell growth suppression effect that is equivalent to that of prexasertib”.
In the case of `COc1cncc(OCC2(C)CNC2)c1-c1cc(Nc2cnc(C#N)cn2)n[nH]1` [Example 25, 5-[(5-{3-methoxy-5-[(3-methylazetidin-3-yl)methoxy]pyridin-4-yl}-1H-pyrazol-3-yl)amino]pyrazine-2-carbonitrile], the IC50 (CHK1) is reported as 0.74 nM and the “cell growth suppression effect compared with prexasertib” value (ES-2 cells) is reported as “excellent cell growth suppression effect that is equivalent to that of prexasertib”.
In the case of `COc1nccc(OCC2(O)CNC2)c1-c1cc(Nc2cnc(C#N)cn2)n[nH]1` [Example 7, 5-[(5-{4-[(3-hydroxyazetidin-3-yl)methoxy]-2-methoxypyridin-3-yl}-1H-pyrazol-3-yl)amino]pyrazine-2-carbonitrile], the IC50 (CHK1) is reported as 0.21 nM and the “effect of suppressing CHK1 activity compared with prexasertib” value (CHK1) is reported as “more potent effect of suppressing CHK1 activity than prexasertib”.
In the case of `COc1ccnc(OCCCN)c1-c1cc(Nc2cnc(Cl)cn2)n[nH]1` [Example 15, N-{5-[2-(3-aminopropoxy)-4-methoxypyridin-3-yl]-1-H-pyrazol-3-yl}-5-chloropyrazin-2-amine], the IC50 (CHK1) is reported as 0.26 nM, the “effect of suppressing CHK1 activity compared with prexasertib” value (CHK1) is reported as “more potent effect of suppressing CHK1 activity than prexasertib” and the “cell growth suppression effect compared with prexasertib” value (ES-2 cells) is reported as “excellent cell growth suppression effect that is equivalent to that of prexasertib”.
`COc1cncc(OCC2(CN)CC2)c1-c1cc(Nc2cnc(C#N)cn2)n[nH]1` [Example 11, 5-{[5-(3-{[1-(aminomethyl)cyclopropyl]methoxy}-5-methoxypyridin-4-yl)-1H-pyrazol-3-yl]amino}pyrazine-2-carbonitrile] was tested, and the IC50 (CHK1) was 0.18 nM, the “effect of suppressing CHK1 activity compared with prexasertib” value (CHK1) was “more potent effect of suppressing CHK1 activity than prexasertib” and the “cell growth suppression effect compared with prexasertib” value (ES-2 cells) was “excellent cell growth suppression effect that is equivalent to that of prexasertib”.
`COc1cncc(O[C@@H]2CC[C@@H](N)C2)c1-c1cc(Nc2cnc(C#N)cn2)n[nH]1` [Example 32, 5-{[5-(3-{[(1R,3R)-3-aminocyclopentyl]oxy}-5-methoxypyridin-4-yl)-1H-pyrazol-3-yl]amino}pyrazine-2-carbonitrile] was tested, and the “cell growth suppression effect compared with prexasertib” value (ES-2 cells) was “excellent cell growth suppression effect that is equivalent to that of prexasertib”.
In the case of `COc1cncc(OCC[C@H](C)N)c1-c1cc(Nc2cnc(C#N)cn2)n[nH]1` [Example 10, 5-[(5-{3-[(3S)-3-aminobutoxy]-5-methoxypyridin-4-yl}-1H-pyrazol-3-yl)amino]pyrazine-2-carbonitrile], the IC50 (CHK1) is reported as 0.3 nM and the “effect of suppressing CHK1 activity compared with prexasertib” value (CHK1) is reported as “more potent effect of suppressing CHK1 activity than prexasertib”.
